Measurements: PMC3894558, “Chemical signatures and new drug targets for gametocytocidal drug development” (Scientific Reports, 2014)
Where two headings read alike, the source gives them in different places.

Test system: P. falciparum 3D7 gametocytes
Test: alamarBlue gametocyte viability assay, strain 3D7
Format: cell-based, Plasmodium falciparum
Conditions: Malaria Box; for Max Resp: DMSO set at 0%, 100 nM epoxomicin set at -100%; for Curve Class / IC50: stages III-V 3D7 gametocytes; for IC50: 11 concentrations, 1:3 dilution; call rule not given here

| SMILES | Max Resp | Curve Class | IC50 (read-out: IC50) | IC50 |
| --- | --- | --- | --- | --- |
| CCN(CC)CCn1c(=N)n(CC(O)c2ccc(Cl)c(Cl)c2)c2ccccc21.Cl (stereo not drawn) [MMV000248] | -99% | -1.1 | 1.48 µM | – |
| CCOc1ccc(Nc2c3ccccc3nc3ccccc23)cc1.Cl [MMV000304] | -95% | -2.1 | 16.6 µM | – |
| Cc1ccc2nc(C)cc(Nc3cccc(C(F)(F)F)c3)c2c1.Cl [MMV000326] | -52% | -2.2 | – | Inactive |
| Br.CCn1c2c(c(=N)c3c1CCC3)CCCC2 [MMV000340] | -49% | -2.2 | – | Inactive |
| O=C(O)C(=O)O.Oc1ccc(Br)cc1CN1CCN(Cc2cccc(F)c2)CC1 [MMV000356] | -72% | -1.2 | 2.64 µM | – |
| CCOc1ccc2c(c1)CN(Cc1ccc(Cl)cc1)CO2 [MMV000443] | -54% | -1.2 | 1.32 µM | – |
| CCCCCn1c(=N)n(CC(O)COc2cccc(C)c2)c2ccccc21.Cl (stereo not drawn) [MMV000444] | -107% | -1.1 | 8.33 µM | – |
| CCCCCCn1c(=N)n(CC(O)COc2cccc(C)c2)c2ccccc21.Cl (stereo not drawn) [MMV000445] | -110% | -1.1 | 7.43 µM | – |
| CN(C)CCCNc1c2ccccc2nc2ccccc12 [MMV000448] | -105% | -1.1 | 1.87 µM | – |
| CCOc1cc2c(cc1OCC)C(c1cc(Cl)ccc1O)NCC2 (stereo not drawn) [MMV000478] | -76% | -1.2 | 4.18 µM | – |
| CCOc1cc2c(cc1OCC)C(c1cc(Cl)c(O)c(OCC)c1)NCC2 (stereo not drawn) [MMV000481] | -81% | -1.1 | 5.26 µM | – |
| CCOc1cc2c(cc1OCC)C(c1cc(C)c(O)c(C)c1)NCC2.Cl (stereo not drawn) [MMV000483] | -82% | -1.1 | 5.26 µM | – |
| CCN(CC)c1cc(C)c2cc(NC(=O)c3cccc(OC)c3)ccc2n1 [MMV000498] | -20% | 4 | – | Inactive |
| CCCN(CCC)CCCNC(=O)c1cc2c(-c3ccc(OC)c(OC)c3)nn(C)c2s1 [MMV000561] | -52% | -2.2 | – | Inactive |
| CCc1ccc(Nc2cc(C)c3ccc(O)cc3n2)cc1.Cl [MMV000570] | -29% | -1.2 | 0.469 µM | – |
| COc1ccc(-c2cc(=O)oc3c4c(ccc23)OCN(Cc2ccc(F)cc2)C4)cc1 [MMV000604] | -55% | -2.2 | 7.43 µM | – |
| COc1ccc(C(O)(CCC(C)C)C(CN2CCOCC2)c2ccc(Cl)cc2)cc1.Cl (stereo not drawn) [MMV000617] | -31% | -2.4 | – | Inactive |
| CCCCC(O)(c1ccc(Cl)cc1)C(CN1CCOCC1)c1ccc(Cl)cc1.Cl (stereo not drawn) [MMV000619] | -51% | -2.2 | – | Inactive |
| CC(O)(c1ccc(Cl)cc1)C(CN1CCCCC1)c1ccccc1.Cl (stereo not drawn) [MMV000620] | -78% | -2.2 | 9.35 µM | – |
| CCCCCCC(O)(c1ccc(F)cc1)C(CN1CCOCC1)c1ccccc1.Cl (stereo not drawn) [MMV000621] | -59% | -2.2 | 37.2 µM | – |

| SMILES | Max Resp | Curve Class | IC50 (read-out: IC50) | IC50 |
| --- | --- | --- | --- | --- |
| CC1CCCCN1CCCNC(=O)c1ccc2c(c1)sc1nc(-c3ccc(F)cc3)cn12 (stereo not drawn) [MMV000634] | -84% | -2.1 | 10.5 µM | – |
| COc1ccc(NC(=O)C2c3ccccc3C(=O)N(CC(C)C)C2c2cccs2)cc1Cl (stereo not drawn) [MMV000642] | -75% | -2.2 | 9.35 µM | – |
| COc1ccccc1CNC(=O)C1c2ccccc2C(=O)N(CC(C)C)C1c1cccs1 (stereo not drawn) [MMV000648] | -46% | -2.2 | – | Inactive |
| CCOc1ccccc1CNC(=O)C1c2ccccc2C(=O)N(CC(C)C)C1c1cccs1 (stereo not drawn) [MMV000653] | -49% | -2.2 | – | Inactive |
| COc1ccc(NC(=O)C2c3ccccc3C(=O)N(CC(C)C)C2c2cccs2)cc1 (stereo not drawn) [MMV000662] | -81% | -1.1 | 4.18 µM | – |
| Cc1ccc(C2CC(C(F)(F)F)n3nc(C(=O)N4CCN(C(c5ccccc5)c5ccccc5)CC4)cc3N2)cc1 (stereo not drawn) [MMV000699] | -70% | -2.2 | 29.6 µM | – |
| CCOC(=O)c1cnc2ccc(OC)cc2c1Nc1ccc(N2CCN(C)CC2)cc1 [MMV000704] | -69% | -2.2 | 23.5 µM | – |
| Cc1ccnc(NC(c2cccc(OCc3ccccc3)c2)c2ccc3cccnc3c2O)c1 (stereo not drawn) [MMV000720] | -112% | -2.1 | 13.2 µM | – |
| Oc1ccc(-c2nc(-c3ccc4oc5ccc(-c6[nH]c(-c7ccc(O)cc7)nc6-c6ccccc6)cc5c4c3)c(-c3ccccc3)[nH]2)cc1 [MMV000753] | -68% | -2.2 | 18.7 µM | – |
| Oc1c(CN2CCN(c3ccccc3F)CC2)cc(Br)c2cccnc12 [MMV000760] | -91% | -1.1 | 3.72 µM | – |
| CCCOCc1cc(CN2CCN(c3cccc(Cl)c3)CC2)c(O)c2ncccc12 [MMV000787] | -98% | -1.1 | 8.33 µM | – |
| CC(C)OCc1cc(CN2CCN(c3cccc(Cl)c3)CC2)c(O)c2ncccc12 [MMV000788] | -97% | -1.1 | 8.33 µM | – |
| Cl.OC(CNCc1ccccc1)Cn1c2ccccc2c2ccccc21 (stereo not drawn) [MMV000839] | -97% | -1.1 | 8.33 µM | – |
| OC(CNC1CCCC1)Cn1c2ccccc2c2ccccc21 (stereo not drawn) [MMV000848] | -93% | -1.1 | 2.09 µM | – |
| Cc1ccc(NC(=O)Nc2cccc(Cl)c2)cc1F [MMV000911] | -36% | -2.2 | – | Inactive |
| COc1ccc2c(c1OC)C(=O)N1c3ccccc3N=C(c3ccc(C)cc3)CC21 (stereo not drawn) [MMV000917] | -63% | -2.2 | 29.6 µM | – |
| COc1ccc(Nc2nc(NCc3ccccc3)c3ccccc3n2)cc1 [MMV000963] | -86% | -2.1 | 9.35 µM | – |
| O=C1CC(O)(C(F)(F)C(F)(F)F)Oc2ccccc21 (stereo not drawn) [MMV000972] | -32% | -1.4 | 0.743 µM | – |
| CN1CCN(c2nc(Nc3ccc(O)cc3)nc3ccccc23)CC1.Cl [MMV000986] | -93% | -1.1 | 6.62 µM | – |
| Cc1ccc(Nc2nc(NCCO)c3ccccc3n2)cc1C [MMV001038] | -71% | -1.2 | 3.32 µM | – |

| SMILES | Max Resp | Curve Class | IC50 (read-out: IC50) | IC50 |
| --- | --- | --- | --- | --- |
| OCCNc1nc(Nc2ccc(Cl)c(Cl)c2)nc2ccccc12 [MMV001041] | -63% | -2.2 | 14.8 µM | – |
| CC(C)c1ccc(CNCC(O)c2ccccc2)cc1.Cl (stereo not drawn) [MMV001049] | -76% | -1.2 | 2.35 µM | – |
| CCOc1cccc2sc(N(Cc3cccnc3)C(=O)C3CCCCC3)nc12 [MMV001230] | -26% | 4 | – | Inactive |
| COc1ccc2sc(N(Cc3cccnc3)C(=O)c3ccc(C#N)cc3)nc2c1 [MMV001239] | -40% | -2.2 | – | Inactive |
| COc1ccc(C)c2sc(N(Cc3cccnc3)C(=O)c3ccc(C#N)cc3)nc12 [MMV001241] | -48% | -2.2 | – | Inactive |
| CSc1ccccc1C(=O)Nc1nc(-c2ccccn2)cs1 [MMV001246] | -72% | -2.2 | 11.8 µM | – |
| CCCCc1ccc(NS(=O)(=O)c2cc3c4c(c2)CCN4C(=O)CC3)cc1 [MMV001255] | 2% | 4 | – | Inactive |
| O=C(Nc1ccc(Br)cc1)Nc1cccc(Cl)c1 [MMV001318] | -20% | 4 | – | Inactive |
| CC1CC(C)CN(C(=O)c2ccc(Cl)cc2Cl)C1 (stereo not drawn) [MMV001344] | -13% | 4 | – | Inactive |
| CCN(CC)CCNc1ccnc2cc(Cl)ccc12 [MMV006087] | -66% | -1.2 | 0.372 µM | – |
| c1ccc(CNc2nc(Nc3ccccc3)nc3ccccc23)cc1 [MMV006169] | -80% | -2.2 | 11.8 µM | – |
| CN1CCN(c2ccc(Nc3c4ccccc4nc4ccccc34)cc2)CC1 [MMV006172] | -98% | -1.1 | 1.48 µM | – |
| O=C(NCc1ccco1)C1CCN(S(=O)(=O)c2ccc(Cl)cc2)CC1 [MMV006188] | 19% | 4 | – | Inactive |
| Cc1cc(NCCN2CCCCC2)c2ccc3ccccc3c2n1 [MMV006203] | -94% | -1.1 | 8.33 µM | – |
| CCOC(=O)c1cnc2c(C)cccc2c1Nc1ccc(C(C)=O)cc1 [MMV006250] | 3% | 4 | – | Inactive |
| CCc1c(C)c(=N)c2ccccc2n1C.I [MMV006278] | -52% | -2.2 | – | Inactive |
| CN(C)c1ccc(C=Cc2nc(=O)c3ccccc3o2)cc1 [MMV006309] | 2% | 4 | – | Inactive |
| Cc1cc(Nc2cccc(F)c2)nc(NCc2ccccc2)n1 [MMV006319] | -60% | -2.2 | 29.6 µM | – |
| O=C1c2ccccc2C2=Nc3ccccc3SC(c3cccc(F)c3)C12 (stereo not drawn) [MMV006389] | 8% | 4 | – | Inactive |
